The supplement of paper PMC10307832

Columns and labels:
Experiment in all cases: relative viability (nuclei count vs DMSO), 5 days (fraction); higher = more cells survive
[1] = compound: O=C(O)c1ccc2c(c1)nc(Nc1cccc(Cl)c1)c1ccncc12 [Silmitasertib]
In short: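 For viability, nuclei in each treated well were divided by nuclei in vehicle wells and the median across plates was taken. Lung cancer cell lines in 1536-well plates were pinned with five library-drug doses (not always all listed) spaced by √10, cultured 5 days without medium change, and imaged at 4× after Hoechst staining, with plates passing only at control CV below 25% and at least one doubling.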

[2] = compound: O=C(O)c1ccc2c(c1)nc(Nc1cccc(Cl)c1)c1ccncc12 [Silmitasertib] + Nc1nc2[nH]cc(CCc3ccc(C(=O)N[C@@H](CCC(=O)O)C(=O)O)cc3)c2c(=O)[nH]1 [Pemetrexed] (partner 0.2 µM)
In short: (§1)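 Dosing by pin tool came one day after lung cancer cell lines were seeded in 1536-well plates, using either one drug or a fixed anchor-drug dose plus five library-drug doses (not always all listed) in √10 steps. After 5 days, nuclei were counted on 4× images. Relative viability is treated-well nuclei count divided by vehicle-well nuclei count, and values are medians of duplicate plates.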

[3] = compound: O=C(O)c1ccc2c(c1)nc(Nc1cccc(Cl)c1)c1ccncc12 [Silmitasertib] + Cc1nc(Nc2ncc(C(=O)Nc3c(C)cccc3Cl)s2)cc(N2CCN(CCO)CC2)n1 [Dasatinib] (partner 0.075 µM)
In short: as §1

[4] = compound: O=C(O)c1ccc2c(c1)nc(Nc1cccc(Cl)c1)c1ccncc12 [Silmitasertib] + COc1cc2c(Oc3ccc(NC(=O)C4(C(=O)Nc5ccc(F)cc5)CC4)cc3F)ccnc2cc1OCCCN1CCOCC1 [Foretinib] (partner 0.25 µM)
In short: as §1

[5] = compound: O=C(O)c1ccc2c(c1)nc(Nc1cccc(Cl)c1)c1ccncc12 [Silmitasertib] + CS(=O)(=O)N1CCN(Cc2cc3nc(-c4cccc5[nH]ncc45)nc(N4CCOCC4)c3s2)CC1 [Pictilisib] (partner 1 µM)
In short: as §1

[6] = compound: O=C(O)c1ccc2c(c1)nc(Nc1cccc(Cl)c1)c1ccncc12 [Silmitasertib] + C[C@@H](Oc1cc(-c2cnn(C3CCNCC3)c2)cnc1N)c1c(Cl)ccc(F)c1Cl [Crizotinib] (partner 1 µM)
In short: as §1

[7] = compound: O=C(O)c1ccc2c(c1)nc(Nc1cccc(Cl)c1)c1ccncc12 [Silmitasertib] + Cc1nc(NC(=O)N2CCC[C@H]2C(N)=O)sc1-c1ccnc(C(C)(C)C(F)(F)F)c1 [Alpelisib] (partner 2 µM)
In short: as §1

[8] = compound: O=C(O)c1ccc2c(c1)nc(Nc1cccc(Cl)c1)c1ccncc12 [Silmitasertib] + CC(C)C[C@H](NC(=O)[C@H](Cc1ccccc1)NC(=O)c1cnccn1)B(O)O [Bortezomib] (partner 0.002 µM)
In short: as §1

[9] = compound: O=C(O)c1ccc2c(c1)nc(Nc1cccc(Cl)c1)c1ccncc12 [Silmitasertib] + COc1cccc2cc(-c3nc([C@H]4CC[C@H](C(=O)O)CC4)n4ncnc(N)c34)[nH]c12 [OSI-027] (partner 0.5 µM)
In short: as §1

[10] = compound: O=C(O)c1ccc2c(c1)nc(Nc1cccc(Cl)c1)c1ccncc12 [Silmitasertib] + C[C@]1(O)C[C@@H](c2nc(-c3ccc4ccc(-c5ccccc5)nc4c3)c3c(N)nccn32)C1 [Linsitinib] (partner 1 µM)
In short: as §1

[11] = compound: O=C(O)c1ccc2c(c1)nc(Nc1cccc(Cl)c1)c1ccncc12 [Silmitasertib] + N=C(N)NC(=N)NCCc1ccccc1 [Phenformin] (partner 250 µM)
In short: as §1

[12] = compound: O=C(O)c1ccc2c(c1)nc(Nc1cccc(Cl)c1)c1ccncc12 [Silmitasertib] + CS(=O)(=O)CCNCc1ccc(-c2ccc3ncnc(Nc4ccc(OCc5cccc(F)c5)c(Cl)c4)c3c2)o1 [Lapatinib] (partner 2 µM)
In short: as §1

[13] = compound: O=C(O)c1ccc2c(c1)nc(Nc1cccc(Cl)c1)c1ccncc12 [Silmitasertib] + CCNC(=O)c1noc(-c2cc(C(C)C)c(O)cc2O)c1-c1ccc(CN2CCOCC2)cc1 [Luminespib] (partner 0.01 µM)
In short: as §1

[14] = compound: O=C(O)c1ccc2c(c1)nc(Nc1cccc(Cl)c1)c1ccncc12 [Silmitasertib] + Cc1cc(Nc2cc(N3CCN(C)CC3)nc(Sc3ccc(NC(=O)C4CC4)cc3)n2)n[nH]1 [Tozasertib] (partner 0.1 µM)
In short: as §1

Cell Line: NCI-H1563
- relative viability ([1]; 0.04 µM): 0.989
- relative viability ([1]; 0.4 µM): 1.03
- relative viability ([1]; 1.265 µM): 0.887
- relative viability ([1]; 4 µM): 0.903
- relative viability ([2]; first compound 0.04 µM): 0.871
- relative viability ([2]; first compound 0.4 µM): 0.844
- relative viability ([2]; first compound 4 µM): 0.693
- relative viability ([3]; first compound 0.04 µM): 0.493
- relative viability ([3]; first compound 0.4 µM): 0.486
- relative viability ([3]; first compound 4 µM): 0.431
- relative viability ([4]; first compound 0.04 µM): 0.96
- relative viability ([4]; first compound 0.4 µM): 0.952
- relative viability ([4]; first compound 1.265 µM): 0.879
- relative viability ([4]; first compound 4 µM): 0.974
- relative viability ([5]; first compound 0.04 µM): 0.62
- relative viability ([5]; first compound 0.4 µM): 0.679
- relative viability ([5]; first compound 1.265 µM): 0.68
- relative viability ([5]; first compound 4 µM): 0.578
- relative viability ([6]; first compound 0.04 µM): 0.88
- relative viability ([6]; first compound 0.4 µM): 0.822
- relative viability ([6]; first compound 1.265 µM): 0.856
- relative viability ([6]; first compound 4 µM): 0.857
- relative viability ([7]; first compound 0.04 µM): 0.922
- relative viability ([7]; first compound 0.4 µM): 0.734
- relative viability ([7]; first compound 1.265 µM): 0.923
- relative viability ([7]; first compound 4 µM): 0.92
- relative viability ([8]; first compound 0.04 µM): 0.932
- relative viability ([8]; first compound 0.4 µM): 0.903
- relative viability ([8]; first compound 1.265 µM): 0.844
- relative viability ([8]; first compound 4 µM): 0.821
- relative viability ([9]; first compound 0.04 µM): 0.773
- relative viability ([9]; first compound 0.4 µM): 0.773
- relative viability ([9]; first compound 1.265 µM): 0.779
- relative viability ([9]; first compound 4 µM): 0.681
- relative viability ([10]; first compound 0.04 µM): 1.32
- relative viability ([10]; first compound 0.4 µM): 1.22
- relative viability ([10]; first compound 1.265 µM): 1.17
- relative viability ([10]; first compound 4 µM): 1.16
- relative viability ([11]; first compound 0.04 µM): 0.711
- relative viability ([11]; first compound 0.4 µM): 0.714
- relative viability ([11]; first compound 1.265 µM): 0.655
- relative viability ([11]; first compound 4 µM): 0.627
- relative viability ([12]; first compound 0.04 µM): 1.13
- relative viability ([12]; first compound 0.4 µM): 0.925
- relative viability ([12]; first compound 1.265 µM): 0.909
- relative viability ([12]; first compound 4 µM): 0.877
- relative viability ([13]; first compound 0.04 µM): 0.56
- relative viability ([13]; first compound 0.4 µM): 0.486
- relative viability ([13]; first compound 4 µM): 0.521

Cell Line: NCI-H1623
- relative viability ([1]; 0.04 µM): 1.03
- relative viability ([1]; 0.4 µM): 0.715
- relative viability ([1]; 1.265 µM): 0.689
- relative viability ([1]; 4 µM): 0.693
- relative viability ([3]; first compound 0.04 µM): 0.576
- relative viability ([3]; first compound 0.4 µM): 0.456
- relative viability ([3]; first compound 1.265 µM): 0.297
- relative viability ([3]; first compound 4 µM): 0.361
- relative viability ([14]; first compound 0.04 µM): 0.422
- relative viability ([14]; first compound 0.4 µM): 0.392
- relative viability ([14]; first compound 1.265 µM): 0.36
- relative viability ([14]; first compound 4 µM): 0.371
- relative viability ([4]; first compound 0.04 µM): 0.934
- relative viability ([4]; first compound 0.4 µM): 0.572
- relative viability ([4]; first compound 1.265 µM): 0.49
- relative viability ([4]; first compound 4 µM): 0.536
- relative viability ([9]; first compound 0.04 µM): 0.347
- relative viability ([9]; first compound 0.4 µM): 0.385
- relative viability ([9]; first compound 1.265 µM): 0.368
- relative viability ([9]; first compound 4 µM): 0.357
- relative viability ([11]; first compound 0.04 µM): 0.563
- relative viability ([11]; first compound 0.4 µM): 0.498
- relative viability ([11]; first compound 1.265 µM): 0.446
- relative viability ([11]; first compound 4 µM): 0.382
- relative viability ([13]; first compound 0.04 µM): 0.46
- relative viability ([13]; first compound 0.4 µM): 0.4
- relative viability ([13]; first compound 1.265 µM): 0.355
- relative viability ([13]; first compound 4 µM): 0.343
